This is an account of results in patent publication US9663478B2, “Benzotriazine oxides as drugs targeting Mycobacterium tuberculosis” (priority 2011, dated 2017).

Common to all, as to assay: microbe, parasite or virus in culture
Type in all cases: cell-based, Mycobacterium tuberculosis

In assay [1] the test system is Mtb strain resistant to P-aminosalicyclic acid ATCC 35821. Particulars: for MIC: Mycobacterium tuberculosis; for MIC, Mtb strain resistant to P-aminosalicyclic acid ATCC 35821: Table 5.
The subject of assay [2] is Mtb strain resistant to Streptomycin ATCC 35820. As to conditions: for MIC: Mycobacterium tuberculosis.
The test system of assay [3] is Mtb strain resistant to Ethambutol ATCC 35837. As to conditions: for MIC: Mycobacterium tuberculosis, ATCC35837, read-out: MIC, Mtb strain resistant to Ethambutol ATCC 35837; for MIC, Mtb strain resistant to Ethambutol ATCC 35837: Table 5.
Assay [4] deals with Mtb strain resistant to Ethionamide ATCC 35830. Particulars: for MIC: Mycobacterium tuberculosis; for MIC, Mtb strain resistant to Ethionamide ATCC 35830: Table 5.
For assay [5], the system named is Mtb strain resistant to Isoniazid ATCC 35822. As to conditions: for MIC: Mycobacterium tuberculosis.
Assay [6] has as its system Mtb strain resistant to Kanamycin ATCC 35827. As to conditions: for MIC: Mycobacterium tuberculosis.
Setting [7] is: ATCC35821, read-out: MIC, Mtb strain resistant to P-aminosalicyclic acid ATCC 35821.
The mark [8] stands for this setting: ATCC35820, 168 h, read-out: MIC, Mtb strain resistant to Streptomycin ATCC 35820.
The mark [9] stands for this setting: ATCC35830, read-out: MIC, Mtb strain resistant to Ethionamide ATCC 35830.
Setting [10] is: ATCC35822, 168 h, read-out: MIC, Mtb strain resistant to Isoniazid ATCC 35822.
Setting [11] is: ATCC35827, 168 h, read-out: MIC, Mtb strain resistant to Kanamycin ATCC 35827.

In brackets after ≈: the same amount, converted by molar mass. Read-outs that look alike come from different tables or passages of the source. A value given as a limit tells only on which side of the number the result lay.

As to `CC(C)(C)Nc1n[n+]([O-])c2ccccc2[n+]1[O-]` [Compound 8c, 3-(tert-butylamino)benzo[e][1,2,4]triazine 1,4-dioxide], the MIC in assay [1] (setting [7]) is 1.2 µg/mL (≈ 5.12 µM); in assay [2] (setting [8]) it was 1.2 µg/mL (≈ 5.12 µM); in assay [3], 2.5 µg/mL (≈ 10.7 µM); in assay [4] (setting [9]), 1.2 µg/mL (≈ 5.12 µM).
In the case of `CCNc1n[n+]([O-])c2cccc(C)c2[n+]1[O-]` [Compound 15ea, Ethyl-(5-methyl-1,4-dioxy-benzo[1,2,4]triazin-3-yl)-amine], in assay [1], the “MIC, Mtb strain resistant to P-aminosalicyclic acid ATCC 35821” value was 0.31 µg/mL (≈ 1.41 µM). The “MIC, Mtb strain resistant to Streptomycin ATCC 35820” value in assay [2] (Table 5) was 0.16 µg/mL (≈ 0.727 µM). Besides, in assay [3], the “MIC, Mtb strain resistant to Ethambutol ATCC 35837” value came out at 0.62 µg/mL (≈ 2.82 µM). Besides, the “MIC, Mtb strain resistant to Ethionamide ATCC 35830” value in assay [4] came out at 0.31 µg/mL (≈ 1.41 µM). Moreover, the “MIC, Mtb strain resistant to Isoniazid ATCC 35822” value in assay [5] (Table 5) stood at 0.62 µg/mL (≈ 2.82 µM). In addition, in assay [6] (Table 5), the “MIC, Mtb strain resistant to Kanamycin ATCC 35827” value was determined as 0.62 µg/mL (≈ 2.82 µM).
Turning to `CCNc1n[n+]([O-])c2cc3c(cc2[n+]1[O-])CCC3` [Compound 15fa, 3-(ethylamino)-7,8-dihydro-6H-indeno[5,6-e][1,2,4]triazine 1,4-dioxide], the MIC in assay [1] (setting [7]) turned out to be 1.2 µg/mL (≈ 4.87 µM); in assay [2] (setting [8]), 0.63 µg/mL (≈ 2.56 µM); in assay [3], 1.2 µg/mL (≈ 4.87 µM); in assay [4] (setting [9]) it was 1.2 µg/mL (≈ 4.87 µM); in assay [5] (setting [10]) it was 2.5 µg/mL (≈ 10.2 µM); in assay [6] (setting [11]), 1.2 µg/mL (≈ 4.87 µM).
In the case of `[O-][n+]1nc(NC2CCC2)[n+]([O-])c2cc3c(cc21)CCC3` [Compound 15fd, Cyclobutyl-(5,8-dioxy-2,3-dihydro-1H-5,6,8-triaza-cyclopenta[b]naphthalen-7-yl)-amine], in assay [1], the “MIC, Mtb strain resistant to P-aminosalicyclic acid ATCC 35821” value is 0.62 µg/mL (≈ 2.28 µM). Moreover, the “MIC, Mtb strain resistant to Streptomycin ATCC 35820” value in assay [2] (Table 5) was determined as 0.31 µg/mL (≈ 1.14 µM). Moreover, in assay [3], the “MIC, Mtb strain resistant to Ethambutol ATCC 35837” value is 0.62 µg/mL (≈ 2.28 µM). Moreover, in assay [4], the “MIC, Mtb strain resistant to Ethionamide ATCC 35830” value turned out to be 0.62 µg/mL (≈ 2.28 µM). In assay [5] (Table 5), the “MIC, Mtb strain resistant to Isoniazid ATCC 35822” value was determined as 1.2 µg/mL (≈ 4.41 µM). The “MIC, Mtb strain resistant to Kanamycin ATCC 35827” value in assay [6] (Table 5) worked out at 1.2 µg/mL (≈ 4.41 µM).
For `CCNc1n[n+]([O-])c2cc(C)c(OC)cc2[n+]1[O-]` [Compound 15ga, 3-(ethylamino)-6-methoxy-7-methylbenzo[e][1,2,4]triazine 1,4-dioxide], the MIC in assay [1] (setting [7]), in assay [2] (setting [8]), in assay [3], in assay [4] (setting [9]), in assay [5] (setting [10]) and in assay [6] (setting [11]) was 1.2 µg/mL (≈ 4.8 µM) throughout.
Turning to `[O-][n+]1nc(N2CCCC2)[n+]([O-])c2ccccc21` [Compound 17q, 3-(pyrrolidin-1-yl)benzo[e][1,2,4]triazine 1,4-dioxide], the MIC was 0.62 µg/mL (≈ 2.67 µM) in assay [1] (setting [7]), 0.02 µg/mL (≈ 0.0861 µM) in assay [2] (setting [8]), 0.31 µg/mL (≈ 1.33 µM) in assay [3] and 0.31 µg/mL (≈ 1.33 µM) in assay [4] (setting [9]).
As for `[O-][n+]1nc(N2CCCC2)[n+]([O-])c2cc3c(cc21)CCC3` [Compound 20q, 3-(pyrrolidin-1-yl)-7,8-dihydro-6H-indeno[5,6-e][1,2,4]triazine 1,4-dioxide], the MIC in assay [2] (ATCC35820, 168 h, Table 5, read-out: MIC, Mtb strain resistant to Streptomycin ATCC 35820) is 0.16 µg/mL (≈ 0.588 µM); in assay [5] (ATCC35822, 168 h, Table 5, read-out: MIC, Mtb strain resistant to Isoniazid ATCC 35822), 0.31 µg/mL (≈ 1.14 µM); in assay [6] (ATCC35827, 168 h, Table 5, read-out: MIC, Mtb strain resistant to Kanamycin ATCC 35827), 0.63 µg/mL (≈ 2.31 µM).
With `[O-][n+]1nc(N2CCCCC2)[n+]([O-])c2cc3c(cc21)CCC3` [Compound 20r, 3-(piperidin-1-yl)-7,8-dihydro-6H-indeno[5,6-e][1,2,4]triazine 1,4-dioxide], the MIC in assay [1] (setting [7]) came out at 0.31 µg/mL (≈ 1.08 µM); in assay [2] (setting [8]) it was 0.15 µg/mL (≈ 0.524 µM); in assay [3], 0.31 µg/mL (≈ 1.08 µM); in assay [4] (setting [9]) it was 0.31 µg/mL (≈ 1.08 µM).
`CN(C)c1n[n+]([O-])c2cc3c(cc2[n+]1[O-])CCC3` [Compound 20s, 3-(dimethylamino)-7,8-dihydro-6H-indeno[5,6-e][1,2,4]triazine 1,4-dioxide]: the MIC in assay [1] (setting [7]) is 0.15 µg/mL (≈ 0.609 µM); in assay [2] (setting [8]), below 0.07 µg/mL; in assay [3], 0.31 µg/mL (≈ 1.26 µM); in assay [4] (setting [9]), 0.15 µg/mL (≈ 0.609 µM).
For the compound `CN(Cc1ccccc1)c1n[n+]([O-])c2cc3c(cc2[n+]1[O-])CCC3` [Compound 20t, 3-(benzyl(methyl)amino)-7,8-dihydro-6H-indeno[5,6-e][1,2,4]triazine 1,4-dioxide], the MIC in assay [1] (setting [7]) was 0.07 µg/mL (≈ 0.217 µM); in assay [2] (setting [8]), below 0.07 µg/mL; in assay [3] it was 0.15 µg/mL (≈ 0.465 µM); in assay [4] (setting [9]), 0.07 µg/mL (≈ 0.217 µM).
For `CN(CCc1ccccc1)c1n[n+]([O-])c2cc3c(cc2[n+]1[O-])CCC3` [Compound 20u, 3-(methyl(phenethyl)amino)-7,8-dihydro-6H-indeno[5,6-e][1,2,4]triazine 1,4-dioxide], the MIC is 0.15 µg/mL (≈ 0.446 µM) in assay [1] (setting [7]), below 0.07 µg/mL in assay [2] (setting [8]), 0.31 µg/mL (≈ 0.922 µM) in assay [3] and 0.15 µg/mL (≈ 0.446 µM) in assay [4] (setting [9]).
Regarding `CC1CCCCN1c1n[n+]([O-])c2cc3c(cc2[n+]1[O-])CCC3` (stereo not drawn) [Compound 20w, 3-(2-methylpiperidin-1-yl)-7,8-dihydro-6H-indeno[5,6-e][1,2,4]triazine 1,4-dioxide], the MIC in assay [1] (setting [7]) amounted to 0.62 µg/mL (≈ 2.06 µM); in assay [2] (setting [8]) it was 0.31 µg/mL (≈ 1.03 µM); in assay [3], 0.62 µg/mL (≈ 2.06 µM); in assay [4] (setting [9]), 0.31 µg/mL (≈ 1.03 µM).
In the case of `CC(C)(C)Nc1n[n+]([O-])c2ccccc2[n+]1[O-]` [SRI-003356], the MIC in assay [1] (ATCC35821, read-out: Activity against Mtb strain resistant to P-aminosalicyclic acid ATCC 35821) was 1.25 µg/mL (≈ 5.34 µM); in assay [2] (ATCC35820, read-out: Activity against Mtb strain resistant to Streptomycin ATCC 35820) it was 1.25 µg/mL (≈ 5.34 µM); in assay [4] (ATCC35830, read-out: Activity against Mtb strain resistant to Ethionamide ATCC 35830), 1.25 µg/mL (≈ 5.34 µM); in assay [5] (ATCC35822, read-out: Activity against Mtb strain resistant to Isoniazid ATCC 35822) it was 2.5 µg/mL (≈ 10.7 µM); in assay [6] (ATCC35827, read-out: Activity against Mtb strain resistant to Kanamycin ATCC 35827), 2.5 µg/mL (≈ 10.7 µM).
